# Patent US20210393651A1, “TARGETING THE ONCOGENIC TRANSCRIPTION FACTOR STAT5 WITH MINERALOCORTICOID ANALOGUES” (DANA-FARBER CANCER INSTITUTE, INC., priority 2018, published 2021)
# Tests used:
# STAT5 [1] = assay: Immunoblot of STAT5 phosphorylation and nuclear localization in T47D cells after prolactin; type: cell-based; details: for phosphorylation and nuclear localization of STAT5: 1 hour pre-treatment, 15 minutes after prolactin, cellular fractionation (FIG. 3B)
# Description: (§1) FIG. 3A-FIG. 3C is a series of photographs of blots and bar charts showing that fludrocortisone inhibits STAT5 transcriptional function without affecting its phosphorylation or genome binding. FIG. 3A is a photograph of a blot wherein T47D cells were pretreated with vehicle control or fludrocortisone for 1 hour after which prolactin was added. Cells were harvested at the indicated time point and immunoblotting was performed. FIG. 3B is a photograph of a blot wherein T47D cells were pretreated with vehicle, fludrocortisone, or Jak inhibitor 1 for 1 hour after which prolactin was added. Cells were collected 15 minutes after prolactin stimulation and cellular fractionation and immunoblotting was performed. FIG. 3C is a photograph of a blot wherein T47D cells were pretreated with vehicle (DMSO) or fludrocortisone for 1 hour, then left untreated or stimulated with prolactin. 30 minutes later, cells were harvested and ChIP was performed to analyze STAT5 and pol II binding to the CISH promoter region. Error bars represent mean±SD for two independent experiments.
# Nuclear and cytoplasmic fractionation was performed using the Nuclear Extract Kit (Active Motif, Carlsbad, Calif.). Immunoblots were performed using antibodies recognizing STAT5 (sc-482), MCR (sc-11412) and RNA polymerase II (pol II) (sc-9001) (all from Santa Cruz Biotechnology, Santa Cruz Calif.) and tyrosine-phosphorylated STAT5 (9131L) (from Cell Signaling Technology, Danvers, Mass.).
# Next, it was considered whether fludrocortisone was inhibiting STAT5 function by blocking a key step in its activation. To address this, the effect of fludrocortisone on the kinetics of STAT5 phosphorylation following prolactin stimulation was evaluated. […] It was then evaluated whether nuclear translocation of activated STAT5 was affected by fludrocortisone treatment. T47D cells were either untreated or pretreated with fludrocortisone or JAK inhibitor 1, then left unstimulated or treated with prolactin, after which nuclear and cytoplasmic fractions were separated and analyzed for phosphorylated STAT5. […]
# MCR = assay: MCR-dependent luciferase reporter in T47D cells; type: cell-based; details: for activation of MCR, MCR-specific luciferase reporter: T47D cells (FIG. 2A)
# Description: FIG. 2A-FIG. 2E is a series of bar graphs showing that the endogenous mineralocorticoid aldosterone inhibits STAT5 transcriptional function. FIG. 2A is a bar chart wherein T47D cells were transfected with an MCR-dependent luciferase reporter and a normalizing control, and normalized luciferase activity was determined after the indicated treatment. FIG. 2B is a bar chart wherein T47D cells transfected with an MCR-dependent luciferase reporter and a normalizing control were treated with the indicated dose of aldosterone, after which luciferase activity was determined. FIG. 2C is a bar chart wherein T47D-luc cells were pre-treated with the indicated concentration of aldosterone for 1 hour, then stimulated with prolactin (100 ng/ml) for 6 hours, after which luciferase activity was determined. FIG. 2D is a bar chart wherein T47D cells were pre-treated with vehicle control or aldosterone (0.01 μM) for 1 hour, after which prolactin (100 ng/ml) was added to induce STAT5 activation. RNA was harvested 1.5 hours later, and expression of STAT5 target genes was measured using quantitative RT-PCR and normalized to the expression of 18s RNA. FIG. 2E is a bar chart wherein T47D cells stably expressing a STAT5-dependent luciferase reporter gene were treated with 1 μM fludrocortisone at the indicated time points relative to prolactin stimulation. Luciferase activity was quantified by luminometry six hours following prolactin stimulation. Error bars represent mean±SD for triplicates.
# [2] = tested on: STAT5 target genes AREG and CISH; assay: Expression of endogenous STAT5 target genes in breast cancer cell lines by quantitative RT-PCR; type: cell-based; details: 1 hour pre-treatment; for expression of endogenous STAT5 target genes AREG and CISH: 1 μM, prolactin 100 ng/ml
# Description: (§2) FIG. 1A is a bar chart wherein reporter cell lines were treated with the indicated doses of fludrocortisone for two hours, after which cytokines were added to activate the appropriate transcription factor. Luciferase activity was quantified by luminometry six hours later. FIG. 1B is a bar chart wherein T47D cells were transfected with one of two luciferase constructs regulated by a STAT5-dependent promoter (NCAM-luc or B-luc) together with a normalizing control, and the effect of fludrocortisone on prolactin-induced gene expression was determined. Jak inhibitor 1 (JAKinhib; 1 μM) was used as a positive control. Error bars represent mean±SD for two independent experiments. FIG. 1C is a series of bar charts wherein the indicated breast cancer cell lines were pre-treated with vehicle (dimethylsulfoxide (DMSO)) or fludrocortisone (1 μM) for 1 hour, then left untreated or stimulated with prolactin (100 ng/ml) to induce STAT5 activation. RNA was harvested 1.5 hours later, and expression of the indicated STAT5 target genes was measured using quantitative reverse transcription polymerase chain reaction (RT-PCR) and normalized to the expression of 18s. Error bars represent mean±SD for triplicates.
# FIG. 2A-FIG. 2E is a series of bar graphs showing that the endogenous mineralocorticoid aldosterone inhibits STAT5 transcriptional function. FIG. 2A is a bar chart wherein T47D cells were transfected with an MCR-dependent luciferase reporter and a normalizing control, and normalized luciferase activity was determined after the indicated treatment. FIG. 2B is a bar chart wherein T47D cells transfected with an MCR-dependent luciferase reporter and a normalizing control were treated with the indicated dose of aldosterone, after which luciferase activity was determined. FIG. 2C is a bar chart wherein T47D-luc cells were pre-treated with the indicated concentration of aldosterone for 1 hour, then stimulated with prolactin (100 ng/ml) for 6 hours, after which luciferase activity was determined. […] Luciferase activity was quantified by luminometry six hours following prolactin stimulation. […]
# STAT5 [3] = assay: STAT5-dependent luciferase reporter in T47D cells (NCAM2-luc/T47D), prolactin-stimulated; type: cell-based
# Description: as §2
# FIG. 2A-FIG. 2E is a series of bar graphs showing that the endogenous mineralocorticoid aldosterone inhibits STAT5 transcriptional function. FIG. 2A is a bar chart wherein T47D cells were transfected with an MCR-dependent luciferase reporter and a normalizing control, and normalized luciferase activity was determined after the indicated treatment. FIG. 2B is a bar chart wherein T47D cells transfected with an MCR-dependent luciferase reporter and a normalizing control were treated with the indicated dose of aldosterone, after which luciferase activity was determined. FIG. 2C is a bar chart wherein T47D-luc cells were pre-treated with the indicated concentration of aldosterone for 1 hour, then stimulated with prolactin (100 ng/ml) for 6 hours, after which luciferase activity was determined. […] RNA was harvested 1.5 hours later, and expression of STAT5 target genes was measured using quantitative RT-PCR and normalized to the expression of 18s RNA. […] Luciferase activity was quantified by luminometry six hours following prolactin stimulation. […]
# T47D, ZR75 (American Type Culture Collection, Manassas Va.), and MDA-MB-468, were maintained in DMEM containing 10% FBS. […] STAT1, STAT3, STAT5 and NF-κB-dependent luciferase activities were measured in STAT-luc/2FTGH, STAT-luc/U3A, NCAM2-luc/T47D and NF-κB-luc/293 cells, respectively (Nelson et al., 2008 Blood 112, 5095-5102). Luciferase activity was quantified using the Bright-Glo Luciferase assay system (Promega, Madison, Wis.). […]
# STAT5 [4] = assay: Dual luciferase assay, parental T47D cells transfected with NCAM-luc or B-luc; type: cell-based; details: prolactin-induced
# Description: as §2, with “triplicates. […]” for “triplicates.”
# [5] = tested on: STAT5 and RNA polymerase II binding to CISH promoter; assay: ChIP of STAT5 and pol II binding to the CISH promoter region in T47D cells; type: cell-based; details: 1 hour pre-treatment, 30 minutes after prolactin (FIG. 3C)
# Description: as §1, with “FIG. 3C is a photograph of a blot wherein T47D cells were pretreated with vehicle (DMSO) or fludrocortisone for 1 hour, then left untreated or stimulated with prolactin. 30 minutes later, cells were harvested and ChIP was performed to analyze STAT5 and pol II binding to the CISH promoter region. Error bars represent mean±SD for two independent experiments.” left out
# ChIP was performed as described (Nelson et al., 2004 J Biol Chem 279, 54724-54730). […] Quantitative PCR was performed in triplicate on ChIP product or input using SYBR Green PCR Master Mix (Applied Biosystems, Foster City, Calif.) and region-specific primers as follows: CISH, forward, 5′-CCCGCGGTTCTAGGAAGAC-3′ (SEQ ID NO: 1), reverse, 5′-CGAGCTGCTGCCTAATCCT-3′ (SEQ ID NO: 2); Rhodopsin, forward, 5′-[…]-3′ (SEQ ID NO: 3), reverse, 5′-[…]-3′ (SEQ ID NO: 4). Relative binding at the CISH promoter site was normalized to input and expressed as mean fold change relative to binding at the Rhodopsin site, which is a control DNA binding site known not to bind STAT5. […]
# STAT3 = assay: STAT3-dependent luciferase reporter (STAT-luc/U3A cells); type: cell-based; details: concentrations up to 33 μM
# Description: as §2, with “FIG. 1C is a series of bar charts wherein the indicated breast cancer cell lines were pre-treated with vehicle (dimethylsulfoxide (DMSO)) or fludrocortisone (1 μM) for 1 hour, then left untreated or stimulated with prolactin (100 ng/ml) to induce STAT5 activation.” left out, “Error bars represent mean±SD for triplicates.” left out
# (§3) T47D, ZR75 (American Type Culture Collection, Manassas Va.), and MDA-MB-468, were maintained in DMEM containing 10% FBS. […] STAT1, STAT3, STAT5 and NF-κB-dependent luciferase activities were measured in STAT-luc/2FTGH, STAT-luc/U3A, NCAM2-luc/T47D and NF-κB-luc/293 cells, respectively (Nelson et al., 2008 Blood 112, 5095-5102). Luciferase activity was quantified using the Bright-Glo Luciferase assay system (Promega, Madison, Wis.).
# STAT5 [6] = assay: STAT5 activity in hematopoietic cells; type: cell-based
# STAT1 = assay: STAT1-dependent luciferase reporter (STAT-luc/2FTGH cells); type: cell-based; details: concentrations up to 33 μM
# Description: as §2, with “FIG. 1C is a series of bar charts wherein the indicated breast cancer cell lines were pre-treated with vehicle (dimethylsulfoxide (DMSO)) or fludrocortisone (1 μM) for 1 hour, then left untreated or stimulated with prolactin (100 ng/ml) to induce STAT5 activation.” left out, “Error bars represent mean±SD for triplicates.” left out
# as §3
# NF-κB = assay: NF-κB-dependent luciferase reporter (NF-κB-luc/293 cells); type: cell-based; details: concentrations up to 33 μM
# Description: as §2, with “FIG. 1C is a series of bar charts wherein the indicated breast cancer cell lines were pre-treated with vehicle (dimethylsulfoxide (DMSO)) or fludrocortisone (1 μM) for 1 hour, then left untreated or stimulated with prolactin (100 ng/ml) to induce STAT5 activation.” left out, “Error bars represent mean±SD for triplicates.” left out
# as §3
# STAT5 [7] = assay: STAT5 function (test not described)
# [8] = T47D reporter cells, 1 μM (FIG. 2E)
compound,measurement,setting,value
CC(C)(C)c1nc2c3cc[nH]c(=O)c3c3cc(F)ccc3c2[nH]1 [JAK inhibitor 1],phosphorylation and nuclear localization of STAT5,STAT5 [1],complete inhibition
C[C@]12CCC(=O)C=C1CC[C@@H]1[C@@H]2[C@@H](O)C[C@]2(C=O)[C@@H](C(=O)CO)CC[C@@H]12 [aldosterone],"activation of MCR, MCR-specific luciferase reporter",MCR,activate MCR
same,"dose dependence of MCR activation, MCR-dependent luciferase reporter","MCR; T47D cells, indicated doses (FIG. 2B)",activates MCR in a dose-dependent manner
same,expression of endogenous STAT5 target genes,"[2]; T47D cells, 0.01 μM, prolactin 100 ng/ml (FIG. 2D)",inhibited
same,"inhibition of STAT5-dependent reporter gene, dose response","STAT5 [3]; T47D-luc cells, 1 hour pre-treatment, prolactin 100 ng/ml for 6 hours (FIG. 2C)",dose-dependent inhibition
"C[C@]12CCC(=O)C=C1CC[C@H]1[C@@H]3CC[C@](O)(C(=O)CO)[C@@]3(C)C[C@H](O)[C@@]12F [fludrocortisone, 9α-fluoro-11β,17α,21-trihydroxypregn-4-ene-3,20-dione]","activation of MCR, MCR-specific luciferase reporter",MCR,activate MCR
same,"STAT5-dependent luciferase activity, B-luc (BCL6) promoter",STAT5 [4],reduced STAT5-dependent luciferase activity
same,"STAT5-dependent luciferase activity, NCAM-luc promoter",STAT5 [4],reduced STAT5-dependent luciferase activity
same,expression of endogenous STAT5 target genes AREG and CISH,[2]; T47D cells,effectively inhibits
same,expression of endogenous STAT5 target genes AREG and CISH,[2]; ZR75 cells,effectively inhibits
same,STAT5 binding to CISH regulatory site (ChIP),[5],no effect
same,prolactin-induced recruitment of RNA polymerase II (pol II) to CISH promoter site (ChIP),[5],did inhibit
same,dynamics of STAT5 activation (phosphorylation kinetics) following prolactin,STAT5 [1]; 1 hour pre-treatment (FIG. 3A),no difference
same,phosphorylation and nuclear localization of STAT5,STAT5 [1],no effect
same,effect on STAT3-dependent luciferase expression,STAT3,essentially no effect
same,induced or constitutive STAT5 activity,STAT5 [6],does not appear to inhibit
same,IC50,"STAT5 [3]; Homo sapiens, T47D cells stably expressing STAT5-dependent luciferase reporter, prolactin 100 ng/ml, read-out: IC50, inhibition of STAT5-dependent luciferase activity",~100 nM
same,"prolactin-stimulated STAT5 luciferase activity, compound added after prolactin",STAT5 [3]; [8],some inhibitory effect
same,"prolactin-stimulated STAT5 luciferase activity, compound added simultaneously with prolactin",STAT5 [3]; [8],still effectively inhibit
same,effect on STAT1-dependent luciferase expression,STAT1,essentially no effect
same,effect on NF-κB-dependent luciferase expression,NF-κB,essentially no effect
CC(=O)S[C@@H]1CC2=CC(=O)CC[C@]2(C)[C@H]2CC[C@@]3(C)[C@@H](CC[C@@]34CCC(=O)O4)[C@H]12 [spironolactone],STAT5 function,STAT5 [7],inhibit STAT5 function
